Test results published in the supplement of paper PMC10307832.

Columns and labels:
Assay in all cases: relative viability (nuclei count vs DMSO), 5 days (fraction); higher = more cells survive
Selisistat + Phenformin = compound: C1CC(C2=C(C1)C3=C(N2)C=CC(=C3)Cl)C(=O)N [Selisistat] + N=C(N)NC(=N)NCCc1ccccc1 [Phenformin] (partner 250 µM)
In short: (§1)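 A single step with final 0.05% Triton X-100, 1% formaldehyde and 1 ug/ml Hoechst fixed the cells and stained nuclei 5 days after treatment. Lung cancer cell lines in 1536-well plates had been treated by pin tool the day after seeding with one drug alone or a fixed anchor-drug dose plus five library-drug doses (not always all listed) in √10 steps, and nuclei were counted on 4× images. Relative viability is the ratio of nuclei in treated wells to nuclei in vehicle wells, taken as the median of duplicate plates.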

Serdemetan + Bortezomib = compound: c1ccc2c(CCNc3ccc(Nc4ccncc4)cc3)c[nH]c2c1 [Serdemetan] + CC(C)C[C@H](NC(=O)[C@H](Cc1ccccc1)NC(=O)c1cnccn1)B(O)O [Bortezomib] (partner 0.002 µM)
In short: as §1

Serdemetan + Lapatinib = compound: c1ccc2c(CCNc3ccc(Nc4ccncc4)cc3)c[nH]c2c1 [Serdemetan] + CS(=O)(=O)CCNCc1ccc(-c2ccc3ncnc(Nc4ccc(OCc5cccc(F)c5)c(Cl)c4)c3c2)o1 [Lapatinib] (partner 2 µM)
In short: as §1

Selisistat + Tozasertib = compound: C1CC(C2=C(C1)C3=C(N2)C=CC(=C3)Cl)C(=O)N [Selisistat] + Cc1cc(Nc2cc(N3CCN(C)CC3)nc(Sc3ccc(NC(=O)C4CC4)cc3)n2)n[nH]1 [Tozasertib] (partner 0.1 µM)
In short: as §1

| Cell Line | relative viability (Selisistat + Phenformin; first compound 0.4 µM) | relative viability (Selisistat + Phenformin; first compound 1.265 µM) | relative viability (Selisistat + Phenformin; first compound 4 µM) | relative viability (Selisistat + Phenformin; first compound 12.65 µM) | relative viability (Selisistat + Phenformin; first compound 40 µM) | relative viability (Serdemetan + Bortezomib; first compound 0.04 µM) | relative viability (Serdemetan + Bortezomib; first compound 0.1265 µM) | relative viability (Serdemetan + Bortezomib; first compound 0.4 µM) | relative viability (Serdemetan + Bortezomib; first compound 4 µM) | relative viability (Serdemetan + Lapatinib; first compound 0.04 µM) | relative viability (Serdemetan + Lapatinib; first compound 0.1265 µM) | relative viability (Serdemetan + Lapatinib; first compound 0.4 µM) | relative viability (Serdemetan + Lapatinib; first compound 4 µM) | relative viability (Selisistat + Tozasertib; first compound 0.4 µM) | relative viability (Selisistat + Tozasertib; first compound 1.265 µM) | relative viability (Selisistat + Tozasertib; first compound 4 µM) | relative viability (Selisistat + Tozasertib; first compound 12.65 µM) | relative viability (Selisistat + Tozasertib; first compound 40 µM) | relative viability (Serdemetan + Bortezomib; first compound 1.265 µM) | relative viability (Serdemetan + Lapatinib; first compound 1.265 µM) |
| --- | --- | --- | --- | --- | --- | --- | --- | --- | --- | --- | --- | --- | --- | --- | --- | --- | --- | --- | --- | --- |
| HARA | 0.412 | 0.476 | 0.412 | 0.396 | 0.379 | 1.09 | 1.1 | 1.15 | 1.08 | 0.653 | 0.773 | 0.68 | 0.604 | 0.137 | 0.12 | 0.119 | 0.154 | 0.1 | – | – |
| HCC-15 | 0.515 | 0.524 | – | 0.44 | 0.501 | 1 | 1.01 | 1.01 | 0.855 | 0.819 | 0.847 | 0.84 | 0.637 | 0.407 | 0.375 | – | 0.311 | 0.252 | 0.954 | 0.657 |
| IA-LM | – | – | – | – | – | 0.846 | 0.854 | 0.784 | 0.324 | 0.723 | 1 | 0.655 | 0.322 | – | – | – | – | – | 0.535 | 0.584 |
| LCLC-103H | 0.339 | 0.338 | 0.334 | 0.351 | 0.355 | 1.12 | 1.05 | 0.96 | 1.2 | – | – | – | – | 0.435 | 0.515 | 0.494 | 0.47 | 0.565 | 0.736 | – |
| LK-2 | 0.577 | 0.373 | 0.385 | 0.382 | 0.387 | – | – | – | – | 0.899 | 0.873 | 1.03 | 0.757 | 0.155 | 0.189 | 0.197 | 0.176 | 0.18 | – | 0.884 |
| NCI-H358 | 0.358 | 0.281 | 0.186 | 0.332 | 0.412 | – | – | – | – | 0.42 | 0.509 | 0.439 | 0.405 | 0.0984 | 0.1 | 0.102 | 0.092 | 0.0962 | – | 0.558 |
| NCI-H441 | 0.801 | 0.799 | 0.698 | 0.779 | 0.8 | 0.459 | 0.784 | 0.906 | 0.643 | – | – | – | – | 0.688 | 0.607 | 0.65 | 0.597 | 0.59 | 0.569 | – |
| NCI-H522 | 0.695 | 0.61 | 0.469 | 0.61 | 0.687 | – | – | – | – | – | – | – | – | 0.569 | 0.593 | 0.509 | 0.608 | 0.52 | – | – |
| NCI-H1299 | – | – | – | – | – | 0.985 | 1.01 | 0.989 | 0.804 | 0.939 | 0.984 | 0.985 | 0.767 | – | – | – | – | – | 0.887 | 0.78 |
| NCI-H1395 | 0.509 | 0.432 | 0.427 | 0.42 | 0.42 | – | – | – | – | 1.04 | 1.07 | 1.34 | 0.717 | 0.705 | 0.698 | 0.81 | 0.8 | 0.686 | – | 0.932 |
| NCI-H1563 | 0.662 | 0.658 | 0.63 | 0.638 | 0.585 | 0.723 | 0.925 | 0.692 | 0.648 | 0.637 | 0.892 | 0.527 | 0.723 | – | – | – | – | – | 0.742 | 0.799 |
| NCI-H1623 | 0.557 | 0.556 | 0.413 | 0.579 | 0.533 | – | – | – | – | – | – | – | – | 0.445 | 0.433 | 0.355 | 0.407 | 0.405 | – | – |
| NCI-H1648 | – | – | – | – | – | – | – | – | – | – | – | – | – | 0.511 | 0.513 | 0.609 | 0.395 | 0.64 | – | – |
| NCI-H1703 | – | – | – | – | – | 0.345 | 0.313 | 0.396 | 0.262 | 1.38 | 1.05 | 1.07 | 0.885 | – | – | – | – | – | 0.362 | 1.09 |
| NCI-H1792 | 0.301 | 0.357 | – | 0.324 | 0.224 | 0.953 | 0.958 | 0.936 | 0.726 | 0.854 | 0.863 | 0.86 | 0.676 | – | – | – | – | – | 0.347 | 0.646 |
| NCI-H1793 | 0.398 | 0.366 | – | 0.303 | 0.388 | – | – | – | – | 0.644 | 0.679 | 0.637 | 0.625 | 0.324 | 0.395 | – | 0.326 | 0.582 | – | 0.38 |
| NCI-H1944 | 0.209 | 0.201 | – | 0.196 | 0.214 | – | – | – | – | 0.788 | 0.7 | 0.768 | 0.494 | 0.273 | 0.243 | – | 0.231 | 0.256 | – | – |
| NCI-H2170 | 0.413 | 0.417 | 0.4 | 0.432 | 0.458 | – | – | – | – | 0.322 | 0.298 | 0.285 | 0.273 | 0.732 | 0.592 | 0.703 | 0.629 | 0.8 | – | 0.268 |
| NCI-H2342 | 0.562 | 0.54 | 0.504 | 0.601 | 0.61 | – | – | – | – | – | – | – | – | 0.504 | 0.502 | 0.504 | 0.502 | 0.57 | – | – |
| SK-MES-1 | 0.683 | 0.718 | 0.681 | 0.695 | 0.681 | – | – | – | – | 0.416 | 0.503 | 0.466 | 0.387 | 0.977 | 0.869 | 0.954 | 0.829 | 0.948 | – | 0.381 |
| SW 900 | 0.632 | 0.621 | 0.468 | 0.484 | 0.641 | – | – | – | – | – | – | – | – | 0.677 | 0.563 | 0.589 | 0.567 | 0.559 | – | – |
